According to the kinase profiling compilation of Christmann-Franck et al. (2016):
Where “and” joins values, the source holds several entries; their conditions need not be identical. Equal values may be shown once. One block for each compound: values may come before it.

Columns and labels:
Experiment in all cases: radiometric filter-binding kinase assay, Kinase HotSpot
Settings in all cases: compound 0.5 µM; ATP 10 µM
CDK1 CCNA2 (human) = CDK1 CCNA2 (human) (UniProt P06493+P20248)
ACVRL1 (human) = ACVRL1 (human) (UniProt P37023)
MAP3K5 (human) = MAP3K5 (human) (UniProt Q99683)
Chain of MAP3K5 (human) (Q99683 whole entry, looked up): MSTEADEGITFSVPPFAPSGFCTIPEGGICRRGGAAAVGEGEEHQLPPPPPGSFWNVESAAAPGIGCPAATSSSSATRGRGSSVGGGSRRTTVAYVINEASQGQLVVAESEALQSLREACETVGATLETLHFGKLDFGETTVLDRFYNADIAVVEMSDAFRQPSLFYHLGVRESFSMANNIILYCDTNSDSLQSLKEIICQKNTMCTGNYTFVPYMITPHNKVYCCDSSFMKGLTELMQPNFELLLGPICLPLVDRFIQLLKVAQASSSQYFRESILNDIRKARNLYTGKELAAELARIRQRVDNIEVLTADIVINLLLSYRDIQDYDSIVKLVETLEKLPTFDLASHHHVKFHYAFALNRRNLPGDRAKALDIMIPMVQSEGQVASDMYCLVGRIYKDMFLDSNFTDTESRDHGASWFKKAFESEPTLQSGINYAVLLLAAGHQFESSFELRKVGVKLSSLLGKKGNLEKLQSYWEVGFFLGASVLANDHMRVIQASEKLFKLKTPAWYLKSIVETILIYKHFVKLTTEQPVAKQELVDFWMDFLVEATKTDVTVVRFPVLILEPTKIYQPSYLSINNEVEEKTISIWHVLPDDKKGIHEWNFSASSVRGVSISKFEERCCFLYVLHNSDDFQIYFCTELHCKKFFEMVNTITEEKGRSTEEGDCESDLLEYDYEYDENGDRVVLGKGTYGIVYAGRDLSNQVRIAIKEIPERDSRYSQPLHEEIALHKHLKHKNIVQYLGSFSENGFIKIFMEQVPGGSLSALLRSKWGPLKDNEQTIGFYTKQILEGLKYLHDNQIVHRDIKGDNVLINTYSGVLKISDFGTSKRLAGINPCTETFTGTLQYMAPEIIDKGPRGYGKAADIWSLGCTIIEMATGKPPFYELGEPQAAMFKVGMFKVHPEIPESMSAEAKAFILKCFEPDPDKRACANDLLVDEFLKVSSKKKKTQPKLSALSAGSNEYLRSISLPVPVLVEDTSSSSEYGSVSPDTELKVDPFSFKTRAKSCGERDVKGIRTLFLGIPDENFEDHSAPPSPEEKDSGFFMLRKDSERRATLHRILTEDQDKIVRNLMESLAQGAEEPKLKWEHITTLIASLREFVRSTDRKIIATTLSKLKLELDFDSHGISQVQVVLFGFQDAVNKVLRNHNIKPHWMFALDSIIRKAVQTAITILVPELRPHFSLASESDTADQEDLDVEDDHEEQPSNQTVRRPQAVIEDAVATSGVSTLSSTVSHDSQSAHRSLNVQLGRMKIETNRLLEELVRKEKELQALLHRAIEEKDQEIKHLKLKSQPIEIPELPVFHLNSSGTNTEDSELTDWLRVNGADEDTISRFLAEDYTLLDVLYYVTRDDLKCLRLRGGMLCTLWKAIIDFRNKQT

CLK3 (human) = CLK3 (human) (UniProt P49761)
PRKG1 (human) = PRKG1 (human) (UniProt Q13976)
EGFR (human) = EGFR (human) (UniProt P00533)
STK25 (human) = STK25 (human) (UniProt O00506)
CLK4 (human) = CLK4 (human) (UniProt Q9HAZ1)
CDK6 CCND3 (human) = CDK6 CCND3 (human) (UniProt P30281+Q00534)
MAP3K14 (human) = MAP3K14 (human) (UniProt Q99558)
CSNK1G3 (human) = CSNK1G3 (human) (UniProt Q9Y6M4)
PRKCI (human) = PRKCI (human) (UniProt P41743)
TGFBR2 (human) = TGFBR2 (human) (UniProt P37173)
CSNK1A1 (human) = CSNK1A1 (human) (UniProt P48729)
MKNK2 (human) = MKNK2 (human) (UniProt Q9HBH9)
IRAK4 (human) = IRAK4 (human) (UniProt Q9NWZ3)
CDK9 CCNT1 (human) = CDK9 CCNT1 (human) (UniProt P50750+O60563)
PIM1 (human) = PIM1 (human) (UniProt P11309)
Chain of PIM1 (human) (P11309 whole entry, looked up): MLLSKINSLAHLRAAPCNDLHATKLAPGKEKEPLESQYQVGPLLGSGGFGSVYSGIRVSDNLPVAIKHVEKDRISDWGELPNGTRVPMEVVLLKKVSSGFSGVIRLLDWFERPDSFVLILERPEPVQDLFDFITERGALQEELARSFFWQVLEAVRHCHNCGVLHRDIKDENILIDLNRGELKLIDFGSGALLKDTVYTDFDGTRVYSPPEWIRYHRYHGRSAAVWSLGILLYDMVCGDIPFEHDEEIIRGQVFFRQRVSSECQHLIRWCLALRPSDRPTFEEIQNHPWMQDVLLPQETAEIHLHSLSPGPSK

STK24 (human) = STK24 (human) (UniProt Q9Y6E0)
CLK1 (human) = CLK1 (human) (UniProt P49759)
DAPK3 (human) = DAPK3 (human) (UniProt O43293)
VRK1 (human) = VRK1 (human) (UniProt Q99986)
STK3 (human) = STK3 (human) (UniProt Q13188)
CDK3 CCNE1 (human) = CDK3 CCNE1 (human) (UniProt Q00526+P24864)
EPHB3 (human) = EPHB3 (human) (UniProt P54753)
Chain of EPHB3 (human) (P54753 whole entry, looked up): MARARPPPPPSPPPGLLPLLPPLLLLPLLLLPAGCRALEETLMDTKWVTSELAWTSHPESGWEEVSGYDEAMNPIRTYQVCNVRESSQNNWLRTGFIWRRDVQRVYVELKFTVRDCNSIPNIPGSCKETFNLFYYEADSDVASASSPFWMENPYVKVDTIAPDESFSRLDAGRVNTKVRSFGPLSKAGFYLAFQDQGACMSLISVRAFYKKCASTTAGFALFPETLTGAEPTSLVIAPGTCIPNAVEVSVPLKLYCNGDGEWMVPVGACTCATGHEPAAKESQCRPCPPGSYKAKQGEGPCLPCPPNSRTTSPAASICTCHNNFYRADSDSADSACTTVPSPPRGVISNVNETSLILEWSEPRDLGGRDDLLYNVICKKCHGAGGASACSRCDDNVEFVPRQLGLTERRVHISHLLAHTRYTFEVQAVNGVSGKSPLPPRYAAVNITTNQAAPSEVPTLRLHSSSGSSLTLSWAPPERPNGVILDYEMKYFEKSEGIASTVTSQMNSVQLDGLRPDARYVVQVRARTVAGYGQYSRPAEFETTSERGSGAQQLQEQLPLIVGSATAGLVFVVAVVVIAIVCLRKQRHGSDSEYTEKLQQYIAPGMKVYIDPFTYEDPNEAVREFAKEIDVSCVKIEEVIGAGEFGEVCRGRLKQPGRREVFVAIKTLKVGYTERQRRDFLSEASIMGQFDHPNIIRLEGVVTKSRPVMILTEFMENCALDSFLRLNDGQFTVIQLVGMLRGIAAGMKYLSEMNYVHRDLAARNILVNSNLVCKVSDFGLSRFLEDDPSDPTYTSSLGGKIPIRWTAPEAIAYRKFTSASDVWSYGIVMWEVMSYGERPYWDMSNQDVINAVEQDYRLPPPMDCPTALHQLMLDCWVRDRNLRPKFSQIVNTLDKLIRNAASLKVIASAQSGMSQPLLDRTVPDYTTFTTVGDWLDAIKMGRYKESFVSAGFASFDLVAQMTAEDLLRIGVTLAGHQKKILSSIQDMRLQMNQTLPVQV

PRKX (human) = PRKX (human) (UniProt P51817)
NEK6 (human) = NEK6 (human) (UniProt Q9HC98)
Chain of NEK6 (human) (Q9HC98 whole entry, looked up): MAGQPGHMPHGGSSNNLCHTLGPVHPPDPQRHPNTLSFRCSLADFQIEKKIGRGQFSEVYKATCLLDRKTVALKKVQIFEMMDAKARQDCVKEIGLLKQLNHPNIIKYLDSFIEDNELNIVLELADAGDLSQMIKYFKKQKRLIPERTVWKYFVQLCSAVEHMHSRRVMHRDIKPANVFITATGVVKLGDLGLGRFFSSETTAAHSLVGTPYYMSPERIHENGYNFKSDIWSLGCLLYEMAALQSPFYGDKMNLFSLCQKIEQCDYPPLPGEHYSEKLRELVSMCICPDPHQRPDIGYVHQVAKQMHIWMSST

CAMK4 (human) = CAMK4 (human) (UniProt Q16566)
BRSK2 (human) = BRSK2 (human) (UniProt Q8IWQ3)
Chain of BRSK2 (human) (Q8IWQ3 whole entry, looked up): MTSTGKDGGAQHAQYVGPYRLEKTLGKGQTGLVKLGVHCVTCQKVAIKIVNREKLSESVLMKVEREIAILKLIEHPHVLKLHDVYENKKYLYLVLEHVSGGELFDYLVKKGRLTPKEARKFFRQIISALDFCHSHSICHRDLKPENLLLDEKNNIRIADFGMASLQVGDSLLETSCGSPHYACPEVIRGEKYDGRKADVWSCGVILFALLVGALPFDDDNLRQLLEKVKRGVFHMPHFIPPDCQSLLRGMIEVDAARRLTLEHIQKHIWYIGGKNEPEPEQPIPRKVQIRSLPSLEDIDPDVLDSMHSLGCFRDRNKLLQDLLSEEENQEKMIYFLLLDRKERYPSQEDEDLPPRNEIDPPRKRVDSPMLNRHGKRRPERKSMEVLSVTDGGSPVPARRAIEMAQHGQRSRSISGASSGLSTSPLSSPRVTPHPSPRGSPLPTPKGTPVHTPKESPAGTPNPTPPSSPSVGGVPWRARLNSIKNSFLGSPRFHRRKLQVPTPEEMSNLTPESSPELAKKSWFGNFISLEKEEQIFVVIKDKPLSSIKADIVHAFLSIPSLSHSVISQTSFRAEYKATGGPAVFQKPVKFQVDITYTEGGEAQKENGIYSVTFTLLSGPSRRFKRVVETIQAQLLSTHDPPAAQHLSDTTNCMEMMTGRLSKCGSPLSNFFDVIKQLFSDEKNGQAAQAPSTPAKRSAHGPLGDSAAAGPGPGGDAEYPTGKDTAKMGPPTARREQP

GRK7 (human) = GRK7 (human) (UniProt Q8WTQ7)
Chain of GRK7 (human) (Q8WTQ7 whole entry, looked up): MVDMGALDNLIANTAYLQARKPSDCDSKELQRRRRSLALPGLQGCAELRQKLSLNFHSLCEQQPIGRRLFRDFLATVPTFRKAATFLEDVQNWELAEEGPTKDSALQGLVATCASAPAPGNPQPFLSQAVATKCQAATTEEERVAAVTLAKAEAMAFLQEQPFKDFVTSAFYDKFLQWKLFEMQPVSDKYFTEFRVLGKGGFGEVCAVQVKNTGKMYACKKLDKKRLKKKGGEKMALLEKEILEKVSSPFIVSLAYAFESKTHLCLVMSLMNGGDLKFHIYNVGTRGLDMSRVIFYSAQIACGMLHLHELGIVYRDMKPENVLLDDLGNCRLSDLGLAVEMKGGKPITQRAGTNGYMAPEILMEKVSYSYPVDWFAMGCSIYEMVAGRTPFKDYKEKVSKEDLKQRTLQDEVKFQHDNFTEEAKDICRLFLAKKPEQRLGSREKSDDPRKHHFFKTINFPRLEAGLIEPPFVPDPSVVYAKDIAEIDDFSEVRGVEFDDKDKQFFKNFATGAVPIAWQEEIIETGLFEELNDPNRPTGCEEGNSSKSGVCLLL

MAP4K5 (human) = MAP4K5 (human) (UniProt Q9Y4K4)
TSSK1B (human) = TSSK1B (human) (UniProt Q9BXA7)
CSK (human) = CSK (human) (UniProt P41240)
MARK2 (human) = MARK2 (human) (UniProt Q7KZI7)
MARK3 (human) = MARK3 (human) (UniProt P27448)
EPHA6 (human) = EPHA6 (human) (UniProt Q9UF33)
RAF1 (human) = RAF1 (human) (UniProt P04049)
Chain of RAF1 (human) (P04049 whole entry, looked up): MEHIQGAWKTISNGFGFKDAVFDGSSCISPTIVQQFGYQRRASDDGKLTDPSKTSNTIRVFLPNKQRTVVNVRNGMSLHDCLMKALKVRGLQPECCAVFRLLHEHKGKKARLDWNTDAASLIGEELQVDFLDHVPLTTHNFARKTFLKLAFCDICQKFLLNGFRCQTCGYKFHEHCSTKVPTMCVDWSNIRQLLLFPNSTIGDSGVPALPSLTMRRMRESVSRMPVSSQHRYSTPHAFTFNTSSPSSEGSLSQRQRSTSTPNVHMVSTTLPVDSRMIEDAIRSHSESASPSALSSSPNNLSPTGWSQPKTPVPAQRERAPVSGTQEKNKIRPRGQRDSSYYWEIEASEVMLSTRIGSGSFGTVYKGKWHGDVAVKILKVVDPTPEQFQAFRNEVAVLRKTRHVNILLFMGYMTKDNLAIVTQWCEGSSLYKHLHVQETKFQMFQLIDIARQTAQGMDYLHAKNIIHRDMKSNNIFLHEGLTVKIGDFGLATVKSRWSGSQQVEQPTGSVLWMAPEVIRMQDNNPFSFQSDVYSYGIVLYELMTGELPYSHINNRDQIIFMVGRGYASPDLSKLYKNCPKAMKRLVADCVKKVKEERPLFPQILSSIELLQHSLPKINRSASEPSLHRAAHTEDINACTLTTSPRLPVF

RET (human) = RET (human) (UniProt P07949)
BRSK1 (human) = BRSK1 (human) (UniProt Q8TDC3)
KDR (human) = KDR (human) (UniProt P35968)
ABL1 (human) = ABL1 (human) (UniProt P00519)
DYRK1A (human) = DYRK1A (human) (UniProt Q13627)

SMILES: Cc1ccc(Nc2nccc(N(C)c3ccc4c(C)n(C)nc4c3)n2)cc1S(N)(=O)=O
residual activity (CDK1 CCNA2 (human)): 96.2%
residual activity (ACVRL1 (human)): 102%
residual activity (MAP3K5 (human)): 102%
residual activity (CLK3 (human)): 107%
residual activity (PRKG1 (human)): 103% and 95.1%
residual activity (EGFR (human)): 91%
residual activity (STK25 (human)): 97.3%
residual activity (CLK4 (human)): 91.7%
residual activity (CDK6 CCND3 (human)): 96.1%
residual activity (MAP3K14 (human)): 104%
residual activity (CSNK1G3 (human)): 97.1%
residual activity (PRKCI (human)): 96.1%
residual activity (TGFBR2 (human)): 100%
residual activity (CSNK1A1 (human)): 100%
residual activity (MKNK2 (human)): 107%
residual activity (IRAK4 (human)): 98.4%
residual activity (CDK9 CCNT1 (human)): 91.5%
residual activity (PIM1 (human)): 100%
residual activity (STK24 (human)): 106%
residual activity (CLK1 (human)): 103%
residual activity (DAPK3 (human)): 92.3%
residual activity (VRK1 (human)): 100%
residual activity (STK3 (human)): 95.4%
residual activity (CDK3 CCNE1 (human)): 93.5%
residual activity (EPHB3 (human)): 71.7%
residual activity (PRKX (human)): 101%
residual activity (NEK6 (human)): 96.1%
residual activity (CAMK4 (human)): 95.9%
residual activity (BRSK2 (human)): 101%
residual activity (GRK7 (human)): 96.5%
residual activity (MAP4K5 (human)): 30.3%
residual activity (TSSK1B (human)): 99%
residual activity (CSK (human)): 93%
residual activity (MARK2 (human)): 111%
residual activity (MARK3 (human)): 96.6%
residual activity (EPHA6 (human)): 80%
residual activity (RAF1 (human)): 9.43%
residual activity (RET (human)): 25.7%
residual activity (BRSK1 (human)): 97.2%

SMILES: N#CC(C#N)=C(N)/C(C#N)=C/c1ccc(O)cc1
residual activity (KDR (human)): 97.2%
residual activity (CDK1 CCNA2 (human)): 90.6%
residual activity (ACVRL1 (human)): 88.8%
residual activity (MAP3K5 (human)): 103%
residual activity (CLK3 (human)): 100%
residual activity (PRKG1 (human)): 89.5% and 91.3%
residual activity (STK25 (human)): 90.4%
residual activity (ABL1 (human)): 103%
residual activity (CLK4 (human)): 101%
residual activity (CDK6 CCND3 (human)): 100%
residual activity (MAP3K14 (human)): 108%
residual activity (CSNK1G3 (human)): 100%
residual activity (DYRK1A (human)): 95.9%
residual activity (PRKCI (human)): 97.4%
residual activity (TGFBR2 (human)): 113%
residual activity (CSNK1A1 (human)): 85%
residual activity (MKNK2 (human)): 79.1%
residual activity (IRAK4 (human)): 92.6%
residual activity (CDK9 CCNT1 (human)): 83.9%
residual activity (PIM1 (human)): 103%
residual activity (STK24 (human)): 103%
residual activity (CLK1 (human)): 96.5%
residual activity (DAPK3 (human)): 91.1%
residual activity (VRK1 (human)): 103%
residual activity (STK3 (human)): 95.2%
residual activity (CDK3 CCNE1 (human)): 96.8%
residual activity (EPHB3 (human)): 99.5%
residual activity (PRKX (human)): 93.7%
residual activity (NEK6 (human)): 97.3%
residual activity (CAMK4 (human)): 97.2%
residual activity (BRSK2 (human)): 101%
residual activity (GRK7 (human)): 104%
residual activity (MAP4K5 (human)): 99.6%
residual activity (TSSK1B (human)): 111%
residual activity (CSK (human)): 97.6%
residual activity (MARK2 (human)): 91.3%
residual activity (MARK3 (human)): 96.5%
residual activity (EPHA6 (human)): 98.6%
residual activity (RAF1 (human)): 86.3%
residual activity (RET (human)): 110%
residual activity (BRSK1 (human)): 99.2%

residual activity (KDR (human)): 75%
residual activity (CDK1 CCNA2 (human)): 93.7%
residual activity (ACVRL1 (human)): 95.9%
residual activity (MAP3K5 (human)): 99.1%
residual activity (CLK3 (human)): 96.9%
residual activity (PRKG1 (human)): 103% and 96.4%
residual activity (STK25 (human)): 113%
residual activity (ABL1 (human)): 67.4%
residual activity (CLK4 (human)): 98%
residual activity (CDK6 CCND3 (human)): 97.2%
residual activity (MAP3K14 (human)): 113%
residual activity (CSNK1G3 (human)): 99.5%
residual activity (DYRK1A (human)): 99.1%
residual activity (PRKCI (human)): 103%
residual activity (TGFBR2 (human)): 166%
residual activity (CSNK1A1 (human)): 84.9%
residual activity (MKNK2 (human)): 94.9%
residual activity (IRAK4 (human)): 98.5%
residual activity (CDK9 CCNT1 (human)): 104%
residual activity (PIM1 (human)): 92.4%
residual activity (STK24 (human)): 100%
residual activity (CLK1 (human)): 103%
residual activity (DAPK3 (human)): 114%
residual activity (VRK1 (human)): 84.8%
residual activity (STK3 (human)): 97.7%
residual activity (CDK3 CCNE1 (human)): 92.6%
residual activity (EPHB3 (human)): 93.4%
residual activity (PRKX (human)): 102%
residual activity (NEK6 (human)): 107%
residual activity (CAMK4 (human)): 101%
residual activity (BRSK2 (human)): 98.3%
residual activity (GRK7 (human)): 114%
residual activity (MAP4K5 (human)): 80.2%
residual activity (TSSK1B (human)): 114%
residual activity (CSK (human)): 3.4%
residual activity (MARK2 (human)): 86.4%
residual activity (MARK3 (human)): 89.8%
residual activity (EPHA6 (human)): 63.6%
residual activity (RAF1 (human)): 71.3%
residual activity (RET (human)): 9.97%
residual activity (BRSK1 (human)): 99.7%
SMILES: Nc1ncnc2c1c(-c1ccc(Oc3ccccc3)cc1)cn2C1CCCC1

SMILES: COc1cc2ncnc(Nc3cccc(Cl)c3)c2cc1OC
residual activity (KDR (human)): 74.7%
residual activity (CDK1 CCNA2 (human)): 94.9%
residual activity (ACVRL1 (human)): 96.4%
residual activity (MAP3K5 (human)): 106%
residual activity (CLK3 (human)): 90.5%
residual activity (PRKG1 (human)): 93.8% and 95.2%
residual activity (EGFR (human)): 0.718%
residual activity (STK25 (human)): 101%
residual activity (ABL1 (human)): 61.8%
residual activity (CLK4 (human)): 98.2%
residual activity (CDK6 CCND3 (human)): 90.1%
residual activity (MAP3K14 (human)): 107%
residual activity (CSNK1G3 (human)): 92.4%
residual activity (DYRK1A (human)): 90.7%
residual activity (PRKCI (human)): 97.5%
residual activity (TGFBR2 (human)): 94.5%
residual activity (CSNK1A1 (human)): 92.5%
residual activity (MKNK2 (human)): 39.5%
residual activity (IRAK4 (human)): 77.7%
residual activity (CDK9 CCNT1 (human)): 85.1%
residual activity (PIM1 (human)): 91.5%
residual activity (STK24 (human)): 96.8%
residual activity (CLK1 (human)): 103%
residual activity (DAPK3 (human)): 94.6%
residual activity (VRK1 (human)): 105%
residual activity (STK3 (human)): 124%
residual activity (CDK3 CCNE1 (human)): 95.2%
residual activity (EPHB3 (human)): 99.1%
residual activity (PRKX (human)): 92.5%
residual activity (NEK6 (human)): 105%
residual activity (CAMK4 (human)): 94.4%
residual activity (BRSK2 (human)): 96.7%
residual activity (GRK7 (human)): 85.4%
residual activity (MAP4K5 (human)): 59.5%
residual activity (TSSK1B (human)): 95.7%
residual activity (CSK (human)): 91.1%
residual activity (MARK3 (human)): 89.8%
residual activity (EPHA6 (human)): 27.8%
residual activity (RAF1 (human)): 78.4%
residual activity (RET (human)): 35.3%
residual activity (BRSK1 (human)): 93.1%

SMILES: CCC(=O)Nc1ccc2ncnc(Nc3cccc(Br)c3)c2c1
residual activity (KDR (human)): 96.5%
residual activity (CDK1 CCNA2 (human)): 87.9%
residual activity (ACVRL1 (human)): 97.4%
residual activity (MAP3K5 (human)): 102%
residual activity (CLK3 (human)): 99.3%
residual activity (PRKG1 (human)): 101% and 110%
residual activity (STK25 (human)): 102%
residual activity (ABL1 (human)): 98.9%
residual activity (CLK4 (human)): 99.4%
residual activity (CDK6 CCND3 (human)): 94.8%
residual activity (MAP3K14 (human)): 116%
residual activity (CSNK1G3 (human)): 91.6%
residual activity (DYRK1A (human)): 89.2%
residual activity (PRKCI (human)): 106%
residual activity (TGFBR2 (human)): 116%
residual activity (CSNK1A1 (human)): 97%
residual activity (MKNK2 (human)): 55.6%
residual activity (IRAK4 (human)): 79.8%
residual activity (CDK9 CCNT1 (human)): 93.7%
residual activity (PIM1 (human)): 85.3%
residual activity (STK24 (human)): 102%
residual activity (CLK1 (human)): 84.5%
residual activity (DAPK3 (human)): 104%
residual activity (VRK1 (human)): 94.4%
residual activity (STK3 (human)): 88%
residual activity (CDK3 CCNE1 (human)): 86.5%
residual activity (EPHB3 (human)): 89.4%
residual activity (PRKX (human)): 95.7%
residual activity (NEK6 (human)): 105%
residual activity (CAMK4 (human)): 103%
residual activity (BRSK2 (human)): 94.3%
residual activity (GRK7 (human)): 105%
residual activity (MAP4K5 (human)): 89%
residual activity (TSSK1B (human)): 73.2%
residual activity (CSK (human)): 89.5%
residual activity (MARK2 (human)): 73.5%
residual activity (MARK3 (human)): 86.1%
residual activity (EPHA6 (human)): 79.5%
residual activity (RAF1 (human)): 98.4%
residual activity (RET (human)): 106%
residual activity (BRSK1 (human)): 83.3%
